± gives the standard deviation of the averaged measurements.
Experiments:
Assay in all cases: level (log10 ratio to DMSO vehicle control); higher = higher biomarker level / cell amount than vehicle control
Conditions in all cases: in DMSO
[1] = compound: Cn1cnc([N+](=O)[O-])c1Sc1ncnc2[nH]cnc12 [Azathioprine]
Description: (§1)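 BioMAP Diversity Plus panel of 12 human primary cell co-culture systems (3C, 4H, LPS, SAg, BT, BF4T, BE3C, CASM3C, HDF3CGF, KF3CT, MyoF, Mphg). Compounds were added 1 h before stimulation and left for 24 h (MyoF 48 h; BT 72 h for soluble read-outs or 6 d for IgG). Biomarkers were read by ELISA, cytotoxicity by SRB, PBMC viability and proliferation by Alamar Blue. Each well value was divided by the mean of 8 DMSO control wells on the same plate and log10 transformed; duplicate blinded samples were tested at 4 concentrations.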

[2] = compound: O=C(O)C(F)(F)C(F)(F)C(F)(F)C(F)(F)C(F)(F)F [Perfluorohexanoic acid]
Description: as §1

[3] = compound: O=S(=O)(O)C(F)(F)C(F)(F)C(F)(F)C(F)(F)F [Perfluorobutanesulfonic acid]
Description: as §1

Test System | level (log10) ([1]; 1400 nM) | level (log10) ([1]; 4200 nM) | level (log10) ([1]; 13000 nM) | level (log10) ([1]; 38000 nM) | level (log10) ([2]; 6700 nM) | level (log10) ([2]; 20000 nM) | level (log10) ([2]; 60000 nM) | level (log10) ([3]; 6700 nM) | level (log10) ([3]; 20000 nM) | level (log10) ([3]; 60000 nM)
SAg:CD62E/E-Selectin | -0.007 ± 0.013 | -0.0485 ± 0.023 | -0.07 ± 0.027 | -0.284 ± 0.018 | 0.001 ± 0.018 | -0.01 ± 0.023 | 0.0195 ± 0.005 | -0.0045 ± 0.005 | -0.008 ± 0.0085 | -0.001 ± 0.024
LPS:CCL2/MCP-1 | 0.019 ± 0.055 | 0.011 ± 0.0042 | 0.03 ± 0.023 | -0.01 ± 0.0014 | -0.0035 ± 0.00071 | -0.008 ± 0.027 | -0.0045 ± 0.018 | -0.0285 ± 0.057 | -0.021 ± 0.027 | -0.035 ± 0.0014
3C:CXCL8/IL-8 | 0.016 ± 0.054 | -0.01 ± 0.011 | -0.026 ± 0.0085 | -0.0455 ± 0.018 | -0.006 ± 0.0042 | 0.005 ± 0.0057 | 0.0635 ± 0.037 | 0.0045 ± 0.00071 | 0.008 ± 0.021 | 0.071 ± 0.04
BE3C:IL-1alpha | -0.012 ± 0.0099 | 0.0045 ± 0.011 | -0.019 ± 0.0085 | -0.031 ± 0.051 | 0.005 ± 0.0071 | -0.0115 ± 0.0035 | -0.002 ± 0.0042 | -0.0175 ± 0.012 | -0.013 ± 0.0085 | -0.0075 ± 0.012
BF4T:CCL2/MCP-1 | 0.0185 ± 0.015 | 0.0025 ± 0.019 | -0.006 ± 0.011 | -0.021 ± 0.0099 | -0.0045 ± 0.0021 | -0.012 ± 0.024 | -0.0015 ± 0.052 | 0.028 ± 0.0014 | 0.026 ± 0.024 | 0.033 ± 0.018
BE3C:HLA-DR | -0.0075 ± 0.021 | -0.0095 ± 0.0021 | -0.0165 ± 0.021 | -0.032 ± 0.044 | -0.0025 ± 0.0021 | -0.011 ± 0.0028 | -0.012 ± 0.0099 | -0.003 | 0 ± 0.0028 | 0.0035 ± 0.018
BF4T:CCL26/Eotaxin-3 | 0.0215 ± 0.059 | 0.025 ± 0.058 | 0.007 ± 0.014 | -0.0025 ± 0.032 | 0.0135 ± 0.015 | 0.005 ± 0.024 | 0.0115 ± 0.011 | -0.057 ± 0.09 | -0.014 ± 0.035 | -0.003 ± 0.047
LPS:CD141/Thrombomodulin | 0.046 ± 0.061 | 0.04 ± 0.037 | 0.0455 ± 0.035 | -0.0055 ± 0.067 | 0.0085 ± 0.012 | 0.0065 ± 0.026 | 0.007 ± 0.017 | -0.048 ± 0.0085 | -0.0045 ± 0.015 | -0.024 ± 0.031
4H:CD62P/P-selectin | -0.019 ± 0.062 | -0.007 ± 0.031 | -0.0075 ± 0.036 | -0.108 ± 0.011 | 0.0235 ± 0.064 | 0.0555 ± 0.032 | 0.0255 ± 0.028 | -0.0155 ± 0.035 | 0.0045 ± 0.016 | -0.0085 ± 0.015
LPS:CD106/VCAM-1 | -0.0125 ± 0.03 | -0.0215 ± 0.028 | -0.0595 ± 0.028 | -0.155 ± 0.025 | -0.0025 ± 0.0035 | -0.0055 ± 0.0035 | 0.008 ± 0.0042 | -0.0055 ± 0.012 | 0.0175 ± 0.011 | 0.03 ± 0.0014
SAg:CD40 | -0.0125 ± 0.042 | -0.0095 ± 0.019 | -0.055 ± 0.025 | -0.118 ± 0.033 | 0.0065 ± 0.016 | -0.0145 ± 0.012 | -0.0095 ± 0.021 | -0.0075 ± 0.0064 | -0.024 ± 0.011 | -0.0445 ± 0.036
BT:sIL-2 | -0.017 ± 0.11 | -0.033 ± 0.1 | -0.164 ± 0.037 | -0.629 ± 0.044 | -0.0225 ± 0.0064 | 0.0345 ± 0.098 | 0.0275 ± 0.074 | -0.0155 ± 0.079 | -0.059 ± 0.044 | -0.025 ± 0.04
BF4T:CD106/VCAM-1 | -0.0185 ± 0.015 | -0.026 ± 0.025 | -0.038 | -0.139 ± 0.016 | 0.0025 ± 0.042 | -0.0145 ± 0.0078 | -0.017 ± 0.017 | -0.0175 ± 0.0078 | -0.0325 ± 0.046 | -0.021 ± 0.0028
BE3C:CXCL10/IP-10 | 0.0015 ± 0.028 | 0.0115 ± 0.028 | 0.001 ± 0.024 | 0.001 ± 0.0085 | 0.0095 ± 0.018 | 0.0125 ± 0.0092 | 0.0245 ± 0.011 | 0.009 ± 0.038 | -0.0015 ± 0.028 | 0.0005 ± 0.018
BF4T:IL-1alpha | -0.0055 ± 0.019 | -0.0015 ± 0.0092 | -0.009 ± 0.0057 | 0.0005 ± 0.033 | -0.001 ± 0.0042 | -0.0035 ± 0.012 | 0.007 ± 0.0042 | 0.0135 ± 0.00071 | 0.0135 ± 0.016 | 0.011 ± 0.016
LPS:CD40 | -0.041 ± 0.03 | -0.04 ± 0.016 | -0.08 ± 0.047 | -0.148 ± 0.03 | 0.041 ± 0.096 | 0.038 ± 0.13 | 0.0215 ± 0.14 | -0.0395 ± 0.00071 | -0.0375 ± 0.029 | -0.0555 ± 0.052
BF4T:MMP-9 | 0.0365 ± 0.087 | -0.001 ± 0.04 | 0.004 ± 0.021 | 0.0215 ± 0.023 | 0.0215 ± 0.0035 | -0.01 ± 0.027 | 0.0215 ± 0.018 | -0.004 ± 0.0014 | -0.0065 ± 0.028 | -0.013 ± 0.02
BE3C:CXCL8/IL-8 | -0.012 ± 0.059 | -0.013 ± 0.054 | -0.052 | -0.088 ± 0.013 | 0.0095 ± 0.042 | 0.0135 ± 0.00071 | 0.017 ± 0.021 | 0.0075 ± 0.035 | 0.013 ± 0.028 | 0.0005 ± 0.0092
BF4T:tPA | 0.005 ± 0.048 | -0.034 ± 0.011 | -0.071 ± 0.023 | -0.0935 ± 0.053 | -0.0045 ± 0.0064 | -0.0035 ± 0.019 | 0.0055 ± 0.013 | -0.0115 ± 0.021 | 0.0025 ± 0.0092 | 0.0115 ± 0.018
4H:CD106/VCAM-1 | -0.024 ± 0.017 | -0.0205 ± 0.025 | -0.0655 ± 0.015 | -0.132 ± 0.044 | -0.006 ± 0.028 | 0.0095 ± 0.00071 | 0.041 ± 0.045 | -0.024 ± 0.016 | -0.029 ± 0.028 | 0.001 ± 0.033
BF4T:PAI-I | 0.004 ± 0.017 | -0.001 ± 0.0099 | -0.009 ± 0.0014 | -0.005 ± 0.013 | 0.011 | 0.004 ± 0.0028 | 0.0145 ± 0.0064 | -0.0075 ± 0.0092 | -0.005 ± 0.0042 | 0.0015 ± 0.005
3C:Proliferation | -0.04 ± 0.057 | -0.038 ± 0.081 | -0.048 ± 0.018 | -0.179 ± 0.031 | -0.0055 ± 0.012 | -0.006 ± 0.0028 | -0.01 ± 0.04 | -0.002 ± 0.0014 | 0.017 ± 0.031 | -0.0525 ± 0.023
SAg:SRB | 0.002 ± 0.0057 | 0.0045 ± 0.013 | -0.009 ± 0.0042 | -0.0205 ± 0.026 | -0.0055 ± 0.0035 | -0.0135 ± 0.0035 | -0.001 ± 0.0028 | 0.0005 ± 0.0092 | -0.0085 ± 0.0092 | -0.0055 ± 0.013
BE3C:EGFR | 0.007 ± 0.02 | -0.0125 ± 0.0035 | -0.0055 ± 0.005 | -0.0095 ± 0.019 | 0.003 ± 0.0014 | -0.005 ± 0.0028 | 0.0025 ± 0.015 | -0.0045 ± 0.021 | 0 ± 0.018 | 0.0005 ± 0.0092
LPS:M-CSF | -0.011 ± 0.025 | -0.024 ± 0.018 | -0.0475 ± 0.056 | -0.125 ± 0.0042 | 0.002 ± 0.0099 | -0.0125 ± 0.015 | -0.0055 ± 0.025 | 0.021 ± 0.016 | -0.0035 ± 0.00071 | 0.01 ± 0.014
BT:sTNF-alpha | 0.0225 ± 0.22 | -0.168 ± 0.11 | -0.167 ± 0.017 | -0.782 ± 0.077 | -0.036 ± 0.05 | -0.023 ± 0.081 | -0.01 ± 0.11 | 0.0295 ± 0.011 | 0.0515 ± 0.071 | 0.015 ± 0.011
LPS:CD69 | -0.0175 ± 0.00071 | -0.046 ± 0.0014 | -0.0345 ± 0.033 | -0.073 ± 0.04 | 0.0025 ± 0.0078 | -0.0165 ± 0.0021 | -0.0295 ± 0.013 | -0.0405 ± 0.061 | 0.0155 ± 0.05 | 0.0825 ± 0.023
4H:VEGFR2 | -0.0045 ± 0.012 | 0.0015 ± 0.047 | -0.0195 ± 0.0078 | 0.0155 ± 0.06 | -0.003 ± 0.021 | -0.009 ± 0.014 | -0.001 ± 0.024 | -0.049 ± 0.04 | -0.0215 ± 0.026 | -0.012 ± 0.0071
4H:SRB | -0.0135 ± 0.0092 | -0.0075 ± 0.005 | -0.015 ± 0.0085 | -0.0485 ± 0.019 | -0.002 ± 0.0057 | -0.0105 ± 0.00071 | 0.0045 ± 0.015 | 0.0005 ± 0.0064 | 0.002 ± 0.0028 | 0 ± 0.0099
BF4T:CD54/ICAM-1 | 0.007 ± 0.02 | -0.0025 ± 0.013 | -0.012 ± 0.0071 | -0.0155 ± 0.022 | -0.011 ± 0.0014 | -0.0135 ± 0.0064 | -0.0005 ± 0.0021 | -0.027 ± 0.0085 | -0.002 ± 0.0014 | -0.0115 ± 0.019

Reference: the supplement of paper PMC10331698
